Experimental data published in PMC13198257, “An aerosolized dual-action autotaxin inhibitor-PPARγ agonist for the treatment of pulmonary fibrosis” (Cell Reports Medicine, 2026).

Tested on: lung gene expression
Assay: RNA sequencing of lung tissue (BLM/EL244 vs BLM)
Type: in vivo, mouse
Experimental: RNA quality was assessed using an Agilent TapeStation 4150 with the High Sensitivity […] ScreenTape (Agilent), according to the manufacturer’s protocols. For library preparation, the QuantSeq 3’mRNA-Seq Library Prep Kit (Lexogen) was used according to manufacturer’s instructions. Briefly, 500 ng of RNA from each sample was used for first-strand synthesis, followed by RNA template removal, and second-strand synthesis initiated by random primers. In-line barcodes were introduced at this step, and this was followed by magnetic bead-based purification. The resulting libraries were amplified for 15 cycles and re-purified, with quantity and quality assessed on a Qubit 4 Fluorometer with the Invitrogen Qubit dsDNA HS Assay and an Agilent Tapestation 4150 with the High Sensitivity D1000 assay kit, respectively. The quantified libraries were pooled equimolarly; 50ng of total library mix was used for Adapter Conversion PCR Amplification using the Universal Library Conversion Kit (App-A), Version: V1.0 (MGI Tech Co., Ltd.), according to the manufacturer’s instructions.
The quantity and quality of the purified adapter conversion PCR (AC-PCR) product were evaluated on a Qubit 4 Fluorometer with the Invitrogen Qubit dsDNA HS Assay and on an Agilent Tapestation 4150 with the High Sensitivity D1000 assay kit, respectively. This was followed by DNA denaturation, Single-Strand Circularisation, Enzymatic Digestion, Enzymatic Digestion Product Cleanup and Quality Control steps on 1 pmol of AC-PCR product, according to the Universal Library Conversion Kit (App-A) User Manual (Version: A3).
Finally, 60 fmol of ssCirDNA were used for DNB preparation and sequencing on a DNBSEQ-G400 platform at the BSRC Alexander Fleming Genomics Facility, using a G400 App-A FCS SE100 High-throughput Sequencing Set (MGI Tech Co., Ltd.), according to the manufacturer’s instructions.
Alignment of the FASTQ files was performed against the mouse genome build mm10 using a custom Bash script.[143] Read counting on the 3′ UTRs and differential expression analysis were conducted using the metaseqR2 bioconductor package.[144] Genes corresponding to the following biotypes were excluded: polymorphic_pseudogene, processed_transcript, pseudogene, IG_V_pseudogene, misc_RNA, IG_C_gene, IG_J_gene, IG_D_gene, IG_LV_gene, TR_V_gene, TR_V_pseudogene, TEC, and processed_pseudogene. Gene counts were normalized with DESEQ[145] through metaseqR2. Genes with more than 10 counts in at least 50% of the samples were kept for further processing. For differential expression analysis, the PANDORA algorithm[146] was used to estimate a meta p-value integrating the results from the DESEQ, DESEQ2,[147] edgeR,[148] limma,[149] NBPSeq,[150] and NOISeq[151] algorithms. All additional parameters were set to default values.
Pathway enrichment analysis was performed for the Gene Ontology Biological process (BP) and Molecular Function (MF) terms through GeneCodis 4.[152] The volcano plots, scatterplots, Venn diagrams, and dot plots were generated using the ggplot2 Bioconductor package.

For `O=C1NC(=O)C(Cc2ccc(OCCC3CCN(C(=O)OCc4cc(Cl)cc(Cl)c4)CC3)cc2)S1` (stereo not drawn) [EL244, 3,5-dichlorobenzyl 4-(2-(4-((2,4-dioxothiazolidin-5-yl)methyl)phenoxy)ethyl)piperidine-1-carboxylate], the “Igfbp3 log2 nFC BLM/EL244 vs BLM” value (DEG Igfbp3, nFC: normalised fold change) was 1.75, the “Igfbp6 log2 nFC BLM/EL244 vs BLM” value (DEG Igfbp6, nFC: normalised fold change) was 1.68 and the “Il6ra log2 nFC BLM/EL244 vs BLM” value (DEG Il6ra, nFC: normalised fold change) was 0.84. The “log2 nFC BLM/EL244 vs BLM” value (DEG Ildr2) was -1.32, the “Inmt log2 nFC BLM/EL244 vs BLM” value (DEG Inmt, nFC: normalised fold change) was 1.34 and the “Iqca log2 nFC BLM/EL244 vs BLM” value (DEG Iqca, nFC: normalised fold change) was 0.87. For the same compound, the “log2 nFC BLM/EL244 vs BLM” value (DEG Iqgap3) was -2.41, the “Itga2b log2 nFC BLM/EL244 vs BLM” value (DEG Itga2b, nFC: normalised fold change) was 1.10 and the “Itga8 log2 nFC BLM/EL244 vs BLM” value (DEG Itga8, nFC: normalised fold change) was 0.88. The “log2 nFC BLM/EL244 vs BLM” value (DEG Itm2a) was -1.25, the “Jdp2 log2 nFC BLM/EL244 vs BLM” value (DEG Jdp2, nFC: normalised fold change) was 0.71 and the “Kcne2 log2 nFC BLM/EL244 vs BLM” value (DEG Kcne2, nFC: normalised fold change) was 1.32. For the same compound, the “log2 nFC BLM/EL244 vs BLM” value (DEG Kcnn4) was -1.27, the “log2 nFC BLM/EL244 vs BLM” value (DEG Kdelr3) was -1.25 and the “log2 nFC BLM/EL244 vs BLM” value (DEG Kif14) was -1.56. For the same compound, the “log2 nFC BLM/EL244 vs BLM” value (DEG Kif20a) was -2.52, the “Klf3 log2 nFC BLM/EL244 vs BLM” value (DEG Klf3, nFC: normalised fold change) was 0.69 and the “Klf4 log2 nFC BLM/EL244 vs BLM” value (DEG Klf4, nFC: normalised fold change) was 0.72. The “Klf9 log2 nFC BLM/EL244 vs BLM” value (DEG Klf9, nFC: normalised fold change) was 0.85, the “Klf15 log2 nFC BLM/EL244 vs BLM” value (DEG Klf15, nFC: normalised fold change) was 1.42 and the “Klrc1 log2 nFC BLM/EL244 vs BLM” value (DEG Klrc1, nFC: normalised fold change) was 1.38. For the same compound, the “Kndc1 log2 nFC BLM/EL244 vs BLM” value (DEG Kndc1, nFC: normalised fold change) was 1.05, the “log2 nFC BLM/EL244 vs BLM” value (DEG Knstrn) was -2.52 and the “log2 nFC BLM/EL244 vs BLM” value (DEG Kntc1) was -1.39. The “Krt79 log2 nFC BLM/EL244 vs BLM” value (DEG Krt79, nFC: normalised fold change) was 1.75, the “log2 nFC BLM/EL244 vs BLM” value (DEG Lama1) was -2.43 and the “Ldb3 log2 nFC BLM/EL244 vs BLM” value (DEG Ldb3, nFC: normalised fold change) was 1.52. For the same compound, the “Lncpint log2 nFC BLM/EL244 vs BLM” value (DEG Lncpint, nFC: normalised fold change) was 1.06, the “Lrat log2 nFC BLM/EL244 vs BLM” value (DEG Lrat, nFC: normalised fold change) was 1.15 and the “Lrrc74b log2 nFC BLM/EL244 vs BLM” value (DEG Lrrc74b, nFC: normalised fold change) was 1.02. The “log2 nFC BLM/EL244 vs BLM” value (DEG Ltbp2) was -1.44, the “Ltbp4 log2 nFC BLM/EL244 vs BLM” value (DEG Ltbp4, nFC: normalised fold change) was 0.81 and the “log2 nFC BLM/EL244 vs BLM” value (DEG Lum) was -1.32. The “Lyve1 log2 nFC BLM/EL244 vs BLM” value (DEG Lyve1, nFC: normalised fold change) was 0.96, the “Map3k6 log2 nFC BLM/EL244 vs BLM” value (DEG Map3k6, nFC: normalised fold change) was 0.95 and the “Mapt log2 nFC BLM/EL244 vs BLM” value (DEG Mapt, nFC: normalised fold change) was 0.89. For the same compound, the “log2 nFC BLM/EL244 vs BLM” value (DEG Mark1) was -1.23, the “log2 nFC BLM/EL244 vs BLM” value (DEG Matk) was -1.42 and the “Mb log2 nFC BLM/EL244 vs BLM” value (DEG Mb, nFC: normalised fold change) was 2.27. The “Mcf2l log2 nFC BLM/EL244 vs BLM” value (DEG Mcf2l, nFC: normalised fold change) was 0.95, the “log2 nFC BLM/EL244 vs BLM” value (DEG Mcm5) was -1.33 and the “log2 nFC BLM/EL244 vs BLM” value (DEG Mdk) was -1.34. The “Mettl7a1 log2 nFC BLM/EL244 vs BLM” value (DEG Mettl7a1, nFC: normalised fold change) was 0.80, the “Mir29c log2 nFC BLM/EL244 vs BLM” value (DEG Mir29c, nFC: normalised fold change) was 0.89 and the “log2 nFC BLM/EL244 vs BLM” value (DEG Mir147) was -1.44. For the same compound, the “Mir6899 log2 nFC BLM/EL244 vs BLM” value (DEG Mir6899, nFC: normalised fold change) was 0.84, the “Mir6979 log2 nFC BLM/EL244 vs BLM” value (DEG Mir6979, nFC: normalised fold change) was 1.18 and the “log2 nFC BLM/EL244 vs BLM” value (DEG Mis18bp1) was -1.46. The “Mmp9 log2 nFC BLM/EL244 vs BLM” value (DEG Mmp9, nFC: normalised fold change) was 1.20, the “log2 nFC BLM/EL244 vs BLM” value (DEG Mmp12) was -2.48 and the “log2 nFC BLM/EL244 vs BLM” value (DEG Mmp14) was -1.31. For the same compound, the “Mpp3 log2 nFC BLM/EL244 vs BLM” value (DEG Mpp3, nFC: normalised fold change) was 1.65, the “log2 nFC BLM/EL244 vs BLM” value (DEG Ms4a7) was -1.49 and the “Ms4a4d log2 nFC BLM/EL244 vs BLM” value (DEG Ms4a4d, nFC: normalised fold change) was 1.15. The “log2 nFC BLM/EL244 vs BLM” value (DEG Msr1) was -1.44, the “Mybpc3 log2 nFC BLM/EL244 vs BLM” value (DEG Mybpc3, nFC: normalised fold change) was 2.06 and the “Mybphl log2 nFC BLM/EL244 vs BLM” value (DEG Mybphl, nFC: normalised fold change) was 2.33.
